Patent US7485755B2, “Acid addition salt of carbasugar amine derivative” (Seikagaku Corporation, priority 2003, dated 2009)
pIC50: −log10 of the molar value.

Columns and labels:
[1] = target: T1, bovine sperm-derived β-D-galactosidase (Bos taurus, UniProt Q58D55); assay: Measurement of acidic β-galactosidase inhibitory activity (4-methylumbelliferyl substrate, fluorescence); assay type: biochemical; details: 0.2 M acetate buffer pH 4.4, 25° C., 30 minutes; read-out: 50% Inhibition concentration (IC50 value)
T1 construct: bovine sperm-derived β-D-galactosidase (manufactured by Signa); purchased Sigma; host or cells: bovine sperm (tissue-derived)
T1 sequence (Q58D55 28-653): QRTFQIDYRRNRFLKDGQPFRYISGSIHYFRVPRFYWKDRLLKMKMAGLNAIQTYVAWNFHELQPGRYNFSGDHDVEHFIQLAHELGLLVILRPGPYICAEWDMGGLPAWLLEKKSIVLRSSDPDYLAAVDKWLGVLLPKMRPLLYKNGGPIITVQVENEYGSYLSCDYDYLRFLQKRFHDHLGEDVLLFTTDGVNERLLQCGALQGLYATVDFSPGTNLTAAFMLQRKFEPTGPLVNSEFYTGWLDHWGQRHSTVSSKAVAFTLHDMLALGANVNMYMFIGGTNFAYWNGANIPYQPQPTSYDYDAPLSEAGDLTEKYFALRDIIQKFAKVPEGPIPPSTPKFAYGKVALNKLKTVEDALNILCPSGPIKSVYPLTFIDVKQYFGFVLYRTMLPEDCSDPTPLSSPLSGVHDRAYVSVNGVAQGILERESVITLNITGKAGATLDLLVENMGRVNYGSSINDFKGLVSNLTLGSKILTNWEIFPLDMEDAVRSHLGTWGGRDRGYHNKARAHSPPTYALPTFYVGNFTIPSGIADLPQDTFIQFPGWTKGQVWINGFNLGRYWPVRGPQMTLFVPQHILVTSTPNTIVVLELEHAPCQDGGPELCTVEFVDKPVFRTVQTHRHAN
Protocol: Each of Substances A-2 to 7 of the invention dissolved in water for injection, to which DMSO had been added and dissolved therein, if necessary, was diluted with a 0.2 M acetate buffer (pH 4.4) to give a concentration of 0.05, 0.125, 0.25, 0.5, 1.0, 2.5 or 5.0 μM and added at 25 μl into a 96 well microplate. Then, a 0.2 M acetate buffer (pH 4.4) solution of bovine sperm-derived β-D-galactosidase (manufactured by Signa) was added at 25 μl, and 4-methylumbelliferyl-β-D-galactopyranoside (10 μM) was further added as a fluorescence substrate at 50 μl, followed by incubation at 25° C. for 30 minutes. Then, the reaction was stopped by adding 100 μl of 2 M Na2CO3, and an amount of 4-methylumbelliferone released by the enzyme reaction (fluorescence intensity) was measured (excitation wavelength 355 nm, measuring wavelength 460 nm) by a fluorescence reader (product name; ARVOSX manufactured by WALLAC). An amount of the 4-methylumbelliferone released at the time of not adding the inhibitor was defined as 100%, and quantitative change in the 4-methylumbelliferone formed by addition of each substance to be evaluated was relatively evaluated. In addition, as the 50% inhibition concentration (IC50 value), the concentration of each substance of the invention which reduces 50% of the concentration of 4-methylumbelliferone at the time of un-adding each substance of the invention was calculated from an inhibition curve.

[2] = Solubility test in distilled water; assay type: physicochemical; details: thermodynamic from solid

SMILES | pIC50 [1] | solubility ([2]; distilled water, water, 24° C.) | solubility ([2]; 19° C., distilled water added to 5.4 mg of sample)
CCCCCCCCN[C@@H]1C=C(CO)[C@H](O)[C@H](O)[C@H]1O [Substance A-2] | 6.32 | ≥ 300 mg/mL | –
CCCCCCCCCCCCN[C@@H]1C=C(CO)[C@H](O)[C@H](O)[C@H]1O [Substance A-4] | 5.84 | – | –
CCCCCCCCCCCCCCCCCCN[C@@H]1C=C(CO)[C@H](O)[C@H](O)[C@H]1O [Substance A-6] | 5.75 | – | –
CCCCCCCCNC1C=C(CO)C(O)C(O)C1O (stereo not shown) [Substance B-2] | – | – | > 108 mg/mL
CCCCCCCCCCN[C@@H]1C=C(CO)[C@H](O)[C@H](O)[C@H]1O [Substance A-3] | 6.52 | – | –
CCCCCCCCCCCCCCN[C@@H]1C=C(CO)[C@H](O)[C@H](O)[C@H]1O [Substance A-5] | 5.57 | – | –
